Experimental data as given in patent US20080064643A1, “Myd88 Homodimerization Inhibitors” (priority 2004, published 2008).
Starred links: 1 amine or outer side, 2 acyl side, 3 side chain; linkers in the order of their positions; H or OH if unused. Non-standard residues stand in square brackets, D forms with d. Residues, ends and D or L forms follow the SMILES beside them. *: point of attachment. AzaVal = azavaline, CC(C)N(N[*:1])C(=O)[*:2]; X1 = NC(=O)CN1CC[C@@]2(CCCN2*)C1=O; azaLeu = CC(C)CN(N[*:1])C(=O)[*:2]

Key:
NF-kB [1] = test: NF-kB inhibition assay in HeLa cells stimulated with IL1α (Trans AM ELISA); type: cell-based, Human; details: for inhibition at 100 µM: Homo sapiens, HeLa, read-out: % NF-κB INHIBITION; for % NF-κB INHIBITION: HeLa cells, compound 100 μM for 6 hours, then 5 ng/ml IL1α for 30 minutes
Method: The activation of NF-kB is an event that takes place downstream of the homodimerisation of MyD88 and its binding to the intracytoplasmic portions of number of receptor complexes. The ability of the compounds which are the subject of the present invention to inhibit the activation of NF-kB downstream of the amplification cascade of the signal triggered by IL1α was therefore evaluated.
All the molecules were assayed beforehand with the MTT cell viability test, verifying that the dose of compound used in the NF-kB inhibition assay was lower than the toxic dose.
HeLa* cells were cultured in EMEM (EBSS) medium supplemented with 2 mM glutamine+1% non-essential amino acids+7.5% FBS (Foetal Bovine Serum)+10 ml/l of a solution of penicillin-streptomycin (10,000 units/ml penicillin and 10 mg/ml streptomycin).
(All cell media and the various components were purchased from Sigma-Aldrich. *HeLa cell line Human Negroid cervix epithelioid carcinoma Human from SIGMA ALDRICH ECACC Ref No: 93021013. IL1α*=SIGMA I2778 Interleukin-1-alpha IL1a Human, recombinant expressed in E. coli).
The cells were used after a number of cell passages ranging from 14 to 35.
Cells are seeded in 6-well plates at a density of 300,000 cells/well in complete medium and incubated overnight at 37° C., 5% CO2.
After approximately 18 hours, the complete medium is eliminated, cells are washed twice with PBS 1× and 1 ml of FBS-free medium is added to each well.
The molecules to be tested are subsequently added to the medium at a concentration of 100 μM. Cells are then incubated for 6 hours at 37° C., 5% CO2.
All the molecules assayed were dissolved in DMSO.
An equivalent volume of DMSO is added to the negative controls, i.e. cells not treated with the molecules.
At the end of the treatment with the molecules, the cells are stimulated with 5 ng/ml of IL1α* for 30 minutes and incubated at 37° C., 5% CO2.
An equivalent volume of PBS/BSA 0.4% (solution used to dissolve IL1α) is added to the negative controls, i.e. non-stimulated cells.
After stimulation with IL1α the cells are washed twice with PBS 1× and collected by cell scraping.
The cells are then centrifuged at 800 rpm, 4° C., 10 min. The supernatants are eliminated. The pellets are re-suspended in lysis buffer**, incubated for 10 minutes at 4° C. and centrifuged at maximum speed at 4° C. The pellets are eliminated and the supernatants frozen at −80° C.
The total protein content is subsequently measured by Bradford Assay using, as the standard, BSA at known concentration, and as used in the ELISA assay as described here below.
Activation/inhibition of NF-kB is evaluated using the Trans AM# (Active Motif) kit.
Il Trans AM kit permits detection of the activation of NF-kB induced by IL1α, through a calorimetric reaction that is obtained at the end of a routine ELISA assay.
The kit provides 96-well plates derivatised with an oligonucleotide that contains the consensus site of NF-kB (5′-GGGACTTT-CC-3′). This oligonucleotide specifically binds only the active form of NF-kB which is released after stimulation with IL1α. The first antibody supplied for detecting NF-kB recognises the p65 epitope which is accessible only when the transcriptional factor is active and binds its target DBNA sequence.
The secondary antibody supplied is conjugated to horse radish peroxidase which, with the addition of a chromogenic substrate, makes it possible to obtain a calorimetric reaction that can be evaluated spectrophotometrically at the wavelength of 450 nm.
The samples are assayed in duplicate and 10 μg of each extract are loaded into each well.
At the end of the assay, the % inhibition is calculated by processing the values obtained in the spectrophotometric readings as follows:
IL*-C*/IL-C=% activation of NF-kB.
IL*=A450 of cells stimulated and treated with the study molecules.
C*=A450 of cells not stimulated and treated with the study molecules.
IL=A450 of cells stimulated with IL1α and not treated with the molecules.
C=A450 of cells not stimulated and not treated. […]

[2] = test system: IL-1-responsive human IL-8 promoter gene region; test: reporter gene assay (RGA) of luciferase activity in CaCo2 cells stimulated with IL-1; type: cell-based; details: substance 100 μM, IL-1 500 pg/mL
Text: It is based on transient co-transfection of CaCo2 human intestinal epithelial cells with a reporter gene plasmid whose luciferase reporter gene expression is under control of the IL-1-responsive human IL-8 promoter gene region. The second plasmid in co-transfection is a vector coding for a control Renilla luciferase reporter gene, whose constitutive expression is used to estimate unspecific cellular toxicity of tested compounds. The read-out of the assay has been defined as the Relative Response Ratio (RRR) for the firefly and the Renilla luciferase, as follows: [formula] where the experimental sample is the value in cont per second (cps) of the experimental reporter luminescence, as defined for any unknown sample. The positive control is the value in cps of the reporter luminescence, as defined for the sample which identifies the maximal induction by IL-1 in the absence of reference inhibitor compound. The negative control is the value in cps of the reporter luminescence, as defined for the sample which identifies the absence of induction by IL-1. For the non-inducible Renilla luciferase, the RRR has been defined as follows: [formula]
The RGA is the read-out of the above experiments, and it was run as follows:
Plate 6×10^6 adherent CaCo2 cells on 10 cm plates. After 18-24 hours culture medium is changed, using 9 mL of D-MEM+glutamine 580 mg/L, without FBS and antibiotics. For each plate, 26 μg of IL-1-responsive reporter vector DNA (pGL2-NA-INT) and 4 μg of control reporter vector DNA are then dissolved in 500 μL Optimem (Invitrogen). Lipofectamine 2000 Reagent (Invitrogen) 30 μL are then added to 500 μL Optimem; this latter reaction mix is incubated for 5 min at room temperature. The DNA mix is then added drop by drop to the Lipofectamine 2000 mix. The resulting DNA/Lipofectamine mix is incubated for 20 min at room temperature and it is added drop by drop over the culture plate, by gently rocking the plate itself. Culture plates are then incubated for about 6 hours at 37° C. and 5% CO2. Cells are then trypsinized and transferred in 96-well plates, at 5×10^4 cells/well in 100 μL of culture medium (D-MEM with FBS 1%,+glutamine 580 mg/L), as required by the experimental design. Afterwards, cells were incubated for 16-18 hours at 37° C. and 5% CO2 and treated as follows: • Take out culture medium from each well. • Add 60 μL of fresh culture medium to control cell wells. • Add 40 μL of fresh culture medium to IL-1-treated wells. • Add 40 μL of fresh culture medium and 20 μL of substance at a concentration of 100 μM and 0.4% DMSO to inhibitor substance wells. • Add 20 μL fresh culture medium supplemented with 0.4% DMSO in IL-1-treated wells and in control cell wells. • Incubate at 37° C. and 5% CO2 for 4 hours. • After 2 hours, stimulate with 20 μL of IL-1 (500 pg/mL) for two additional hours at 37° C. and 5% CO2. • Appropriate amount of luciferase standard protein is included in additional assay wells. • Add for each well 80 μL of firefly luciferase substrate (Dual-Glo Luciferase Assay System reagent). • Incubate at room temperature for 10 min. • Read the firefly luciferase output on the Veritas lumenometer (Turner BioSystems). • Immediately add to each well 80 μL of the Renilla luciferase substrate (Dual-Glo Luciferase Assay System reagent). • Incubate at room temperature for 10 min. • Read the Renilla luciferase output on the Veritas lumenometer (Turner BioSystems).
Compounds considered positive in the RGA assay were those that gave a percentage inhibition ≧20%.

MyD88 homodimer = molecular target: T1, MyD88 homodimer (Homo sapiens, UniProt Q99836); test: co-immunoprecipitation assay of MyD88 homodimerisation (myc-MyD88 / GST-MyD88TIR, Western blot); type: binding; details: residual interaction in the MyD88 homodimer as percentage of the untreated protein; peptide 200 μM, 60 min at 4° C.
T1 construct: incubated with purified protein GST-MyD88TIR; made in house; host or cells: HEK293 (myc-MyD88, transient expression)
T1 sequence (Q99836 whole entry): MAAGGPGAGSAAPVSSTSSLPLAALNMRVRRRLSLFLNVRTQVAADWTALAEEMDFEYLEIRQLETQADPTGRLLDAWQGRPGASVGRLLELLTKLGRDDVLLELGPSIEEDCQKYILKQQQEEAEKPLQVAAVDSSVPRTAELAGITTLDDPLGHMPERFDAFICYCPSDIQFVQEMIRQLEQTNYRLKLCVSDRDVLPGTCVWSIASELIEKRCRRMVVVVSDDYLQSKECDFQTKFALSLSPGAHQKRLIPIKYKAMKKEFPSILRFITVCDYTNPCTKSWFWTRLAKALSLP
Text: (§1) Preliminary studies on the inhibition of the homodimerisation of MyD88 have been conducted by the present inventors using a co-immunoprecipiation assay on a series of natural peptides (synthesised as acetylamide at the N terminal and as primary amide at the carboxyl terminal) comprising the consensus sequence of the BB loop. […] The protein myc-MyD88 is expressed temporarily in HEK293 cells and isolated from cell extracts by immunoprecipitation with the anti-myc antibody. The immunoprecipitated protein is incubated with purified protein GST-MyD88TIR for 60 min at 4° C. in the presence or absence of the synthetic peptide (final concentration 200 μM). After suitable washings, the proteins absorbed to the resin used for the immunoprecipitation are solubilised with SDS and analysed by Western blot for the presence of myc-MyD88 and GST-MyD88TIR. Percentage inhibition of NF-kB activation is also given for these two peptides

NF-kB [3] = test: NF-kB activation inhibition, preliminary studies on natural peptides (Table 1); type: cell-based; details: conditions not stated
Text: as §1

With COc1ccc(C(=O)N2CCC[C@]23CCN(CC(=O)N[C@H](C(N)=O)[C@@H](C)O)C3=O)cc1NC(=O)c1cccnc1 [ST2792, PAM9-SP02-Beta2-Thr-NH2] as the compound, how does the inhibition at 100 µM (NF-kB [1]) read?
Its inhibition at 100 µM is 22%.

How did the “% NF-κB INHIBITION” value (NF-kB [1]) turn out when CC(C)[C@H](NC(=O)[C@H](CC(=O)O)NC(=O)c1cccnc1)C(=O)N[C@H](C(=O)N1CCC[C@]12CCN(CC(N)=O)C2=O)C(C)C [ST2794, PAM9-Asp-Val-Val-Beta2-NH2] was run?
Its value is 25%.

Which “% NF-κB INHIBITION” value (NF-kB [1]) does the source give for CC(=O)N[C@H](CCCNC(=N)N)C(=O)N[C@H](CC(=O)O)C(=O)N[C@@H](C(=O)N[C@H](CC(C)C)C(=O)N1CCC[C@@]12CCN(CC(N)=O)C2=O)C(C)C [ST2799, Ac-arg-asp-val-leu-Beta1-NH2] (Ac-[dR][dD][dV][dL]-X1) here?
Its value is 23%.

Which inhibition at 100 µM (NF-kB [1]) does the source give for CC(=O)NCC(=O)N1CCC[C@H]1C(=O)Nc1cccc(C(=O)N[C@@H](CCCNC(=N)N)C(N)=O)c1C [ST2864, Ac-Gly-Pro-SP30-Arg-NH2] here?
Its inhibition at 100 µM is 16%.

For “Ac-Arg-Asp-AzaLeu-Val-Pro-Gly-NH2 (Ac-RD[azaLeu]VPG-NH2; SMILES CC(=O)N[C@@H](CCCNC(=N)N)C(=O)N[C@@H](CC(=O)O)C(=O)NN(CC(C)C)C(=O)N[C@H](C(=O)N1CCC[C@H]1C(=O)NCC(N)=O)C(C)C) [ST2928]”, which “% INHIBITION” value [2] is on record?
The value was 29%.

“Ac-Arg-Asp-Azagly-Val-Pro-Gly-NH2 [ST2927]” was tested. Which “% INHIBITION” value [2] did it give?
The value was 22%.

With “Ac-Arg-Asp-Val-AzaVal-Pro-Gly-NH2 [ST2920]” as the compound, how does the “% INHIBITION” value [2] read?
Its value is 25%.

Which “% INHIBITION” value [2] does the source give for “Ac-Azagly-Azagly-pro-leu-val-asp-arg-NH2 [ST3032]” here?
Its value is 21%.

Ac-RDVLPGT-NH2 [ST2348] was tested. Which “% residual interaction” value (MyD88 homodimer) did it give?
The value was 29%.

And the “% NF-kB inhibition” value (NF-kB [3])?
The value was 37%.

Which results are given for Ac-RDVVPGG-NH2 [ST2350]?
% residual interaction (MyD88 homodimer): 18%; % NF-kB inhibition (NF-kB [3]): 20%

For “Ac-thr-Azagly-pro-leu-val-asp-arg-NH2 [ST2930]”, which “% INHIBITION” value [2] is on record?
Its value is 24%.

With “Ac-thr-gly-pro-leu-val-asp-arg-NH2 [ST2565]” as the compound, how does the “% NF-κB INHIBITION” value (NF-kB [1]) read?
Its value is 30%.

With “Ap-PTDLVRG-NH2 [ST2403, reference compound]” as the compound, how does the “inhibition of NF-κB activation” value (NF-kB [1]; HeLa cells stimulated with IL-1α) read?
The value was “inactive”.

With “H-Arg-Gly-AzaVal-Val-Pro-Gly-NH2 (H-RG[AzaVal]VPG-NH2; SMILES CC(C)[C@H](NC(=O)N(NC(=O)CNC(=O)[C@@H](N)CCCNC(=N)N)C(C)C)C(=O)N1CCC[C@H]1C(=O)NCC(N)=O) [ST2926]” as the compound, how does the “% INHIBITION” value [2] read?
Its value is 20%.
